This is an account of results in patent publication US20090137572A1, “2-substituted-4-heteroaryl-pyrimidines useful for the treatment of proliferative disorders” (priority 2004, published 2009).

The target of the assay is T1, Aurora A kinase (Homo sapiens, UniProt O14965).
T1 construct: purchased
T1 sequence (O14965 1-403): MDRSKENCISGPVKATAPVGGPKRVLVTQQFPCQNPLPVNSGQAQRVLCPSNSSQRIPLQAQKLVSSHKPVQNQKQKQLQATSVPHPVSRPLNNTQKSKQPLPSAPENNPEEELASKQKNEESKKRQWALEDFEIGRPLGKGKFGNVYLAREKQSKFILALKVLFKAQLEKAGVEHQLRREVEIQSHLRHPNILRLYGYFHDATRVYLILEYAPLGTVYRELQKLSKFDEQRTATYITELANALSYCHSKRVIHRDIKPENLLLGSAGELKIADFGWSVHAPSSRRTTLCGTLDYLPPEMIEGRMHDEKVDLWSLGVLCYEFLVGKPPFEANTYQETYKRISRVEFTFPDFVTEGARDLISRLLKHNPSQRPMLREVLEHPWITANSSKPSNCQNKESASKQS
Nature of the assay: Aurora-A (human) kinase assay (Kemptide substrate). It counts as biochemical. The following applies: pIC50 is -log(IC50, M), 15 μM ATP; for IC50: read-out: Kinase Inhibition pIC50 Aurora A kinase (converted). The method, then:
Aurora-A (human) kinase assay. This was achieved by measurement of incorporation of radioactive phosphate from ATP into Kemptide substrate (LRRASLG), upon phosphorylation by commercially obtained aurora-A kinase. Assays were performed using 96-well plates and appropriate assay buffers (8 mM MOPS, 0.2 mM EDTA, pH 7.0), into which were added 5-10 ng of active enzyme with 200 μM substrate (Kemptide). The reactions were initiated by addition of Mg/ATP mix (10 mM MgAcetate+15 μM ATP with 30-50 kBq per well of [γ-^33P]-ATP) and mixtures incubated for 40 min at room temperature. Reactions were stopped by addition of 3% phosphoric acid, followed by filtration through p81 filterplates (Whatman Polyfiltronics, Kent, UK). After washing 5 times with 75 mM aq orthophosphoric acid and once in methanol, plates were dried, scintillant added and incorporated radioactivity measured in a scintillation counter (TopCount, Packard Instruments, Pangbourne, Berks, UK). Compounds for kinase assay were made up as 10 mM stocks in DMSO and diluted into 10% DMSO in assay buffer.

Regarding `CCNc1nc(C)c(-c2ccnc(Nc3ccc(OC)cc3C)n2)s1` [Compound 111, [4-(2-Ethylamino-4-methyl-thiazol-5-yl)-pyrimidin-2-yl]-(4-methoxy-2-methyl-phenyl)-amine], the IC50 is 3160 nM. On to `Cc1nc(N(C)c2cccnc2)sc1-c1ccnc(Nc2ccc(N3CCOCC3)cc2)n1` [Compound 153, {4-[4-Methyl-2-(methyl-pyridin-3-yl-amino)-thiazol-5-yl]-pyrimidin-2-yl}-(4-morpholin-4-yl-phenyl)-amine], for which the “Kinase Inhibition pIC50 Aurora A kinase” value amounted to 6.1.

As for `COc1ccc(Nc2nccc(-c3sc(C)nc3C)n2)c(C)c1` [Compound 112, [4-(2,4-Dimethyl-thiazol-5-yl)-pyrimidin-2-yl]-(4-methoxy-2-methyl-phenyl)-amine], the IC50 was 2510 nM. As to `CCc1cc(-c2nc(C)c(-c3ccnc(Nc4cccc(CNC(C)=O)c4)n3)s2)ccn1` [Compound 105, N-(3-{4-[2-(2-Ethyl-pyridin-4-yl)-4-methyl-thiazol-5-yl]-pyrimidin-2-ylamino}-benzyl)-acetamide], the IC50 was 316 nM. As to `Cc1nc(-c2ccc(N3CCOCC3)cc2)sc1-c1ccnc(Nc2ccc(N3CCOCC3)cc2)n1` [Compound 147, {4-[4-Methyl-2-(4-morpholin-4-yl-phenyl)-thiazol-5-yl]-pyrimidin-2-yl}-(4-morpholin-4-yl-phenyl)-amine], the IC50 was 501 nM.

As for `Cc1nc(N(C)C)sc1-c1ccnc(N)n1` [Compound 88, 4-(2-Dimethylamino-4-methyl-thiazol-5-yl)-pyrimidin-2-ylamine], the IC50 was 1580 nM. Same read-out and setting: in the case of `CNc1nc(C)c(-c2ccnc(Nc3ccc(N4CCOCC4)cc3C)n2)s1` [Compound 145, [4-(4-Methyl-2-methylamino-thiazol-5-yl)-pyrimidin-2-yl]-(2-methyl-4-morpholin-4-yl-phenyl)-amine] it was 3980 nM. On the same count and under the same terms, in the case of `Cc1nc(C)c(-c2ccnc(Nc3ccc(N4CCOCC4)c(C(N)=O)c3)n2)s1` [Compound 210, 5-[4-(2,4-Dimethyl-thiazol-5-yl)-pyrimidin-2-ylamino]-2-morpholin-4-yl-benzamide] it was 251 nM; in that of `Cc1nc(C)c(-c2ccnc(Nc3ccc(C)c(N4CCOCC4)c3)n2)s1` [Compound 214, [4-(2,4-Dimethyl-thiazol-5-yl)-pyrimidin-2-yl]-(4-methyl-3-morpholin-4-yl-phenyl)-amine], 251 nM. The same measure, in the same setting: in the case of `Cc1ccc(-c2nc(C)c(-c3ccnc(Nc4ccc(N5CCOCC5)cc4)n3)s2)c(C)c1` [Compound 140, {4-[2-(2,4-Dimethyl-phenyl)-4-methyl-thiazol-5-yl]-pyrimidin-2-yl}-(4-morpholin-4-yl-phenyl)-amine] it was 1580 nM. `Cc1cc(Nc2nccc(-c3sc(CO)nc3C)n2)ccc1N1CCCCC1` [Compound 209, {4-Methyl-5-[2-(3-methyl-4-piperidin-1-yl-phenylamino)-pyrimidin-4-yl]-thiazol-2-yl}-methanol]: the IC50 is 251 nM.

In the case of `CCN(C(C)=O)c1nc(C)c(-c2ccnc(N)n2)s1` [Compound 87, N-[5-(2-Amino-pyrimidin-4-yl)-4-methyl-thiazol-2-yl]-N-ethyl-acetamide], the IC50 was 158 nM. In the case of `Cc1nc(-c2cccnc2)sc1-c1ccnc(Nc2ccc3c(c2)OCCO3)n1` [Compound 180, (2,3-Dihydro-benzo[1,4]dioxin-6-yl)-[4-(4-methyl-2-pyridin-3-yl-thiazol-5-yl)-pyrimidin-2-yl]-amine], the IC50 is 1580 nM. In the case of `Cc1nc(NCCc2ccccc2)sc1-c1ccnc(Nc2ccc3c(c2)OCCO3)n1` [Compound 183, (2,3-Dihydro-benzo[1,4]dioxin-6-yl)-[4-(4-methyl-2-phenethylamino-thiazol-5-yl)-pyrimidin-2-yl]-amine], the IC50 is 1260 nM.

As for `Cc1nc(C)c(-c2ccnc(Nc3ccc(N4CCOCC4)cc3C)n2)s1` [Compound 139, [4-(2,4-Dimethyl-thiazol-5-yl)-pyrimidin-2-yl]-(2-methyl-4-morpholin-4-yl-phenyl)-amine], the IC50 was 1580 nM.
